Results on 4 molecules are retold here after BindingDB's records for doi:10.1016/j.bmcl.2014.02.013 (Bristol-Myers Squibb, 2014).

The assay is described as follows: Antagonist activity at CCR2 in human monocytes assessed as reduction of chemotaxis in presence of […] BSA.
Usually IC50 stands for the concentration at which inhibition is half-maximal. On to `CC(C)N(C)[C@@H]1CC[C@H](N2CC[C@H](NC(=O)c3cccc(C(F)(F)F)c3)C2=O)[C@H](CS(C)(=O)=O)C1`, for which the IC50 is 2.6 nM. To `CC(C)N(C)[C@@H]1CC[C@H](N2CC[C@H](NC(=O)c3cccc(C(F)(F)F)c3)C2=O)[C@H](CS(=O)(=O)C(C)C)C1` belongs 0.2 nM; to `CC(C)N(C)[C@@H]1CC[C@H](N2CC[C@H](NC(=O)c3cccc(C(F)(F)F)c3)C2=O)[C@H](CS(=O)(=O)C(C)(C)C)C1`, 0.2 nM. Consider `CCS(=O)(=O)C[C@@H]1C[C@H](N(C)C(C)C)CC[C@@H]1N1CC[C@H](NC(=O)c2cccc(C(F)(F)F)c2)C1=O`, for which the IC50 stood at 0.6 nM.
